As a reminder, the kcat is the number of substrate molecules converted per active site and unit of time at saturation. As usually defined, the Km is the concentration of substrate that gives half-maximal velocity. One may read the IC50 as the concentration that gives 50% inhibition.

Consider 3 compounds from publication PMC11020753, “Contribution of amino acids in the active site of dipeptidyl peptidase 4 to the catalytic action of the enzyme” (PLOS ONE, 2024).

What all share (format): biochemical
In assay [1] the target is T1, DP4 variant N710Q (Homo sapiens, UniProt P27487, N710Q).
T1 construct: His(6)-37-766 hDP4 containing fractions were concentrated to 1 ml; made in house; host or cells: Pichia pastoris X-33 (vector pPICZα C, secreted)
Put plainly: Hydrolysis of dipeptide-AMC substrates (fluorescence).
Experimental: The reactions were performed in 100 mM HEPES buffer, pH 7.6 at 30°C in a total assay volume of 270 μl by using 96-well plates. […] Fluorescence was detected with a [sequence]luor Plus (TECAN) at an excitation wavelength of 380 nm and an emission wavelength of 465 nm.

Assay [2] deals with T2, DP4 variant N710D (Homo sapiens, UniProt P27487, N710D).
T2 construct: His(6)-37-766 hDP4 containing fractions were concentrated to 1 ml; made in house; host or cells: Pichia pastoris X-33 (vector pPICZα C, secreted)
The assay is described as above. The following applies: substrate hydrolysis, 100 mM HEPES-buffer (pH 7.6), T = 30 °C.

In assay [3] the target is T3, wild type DP4 (Homo sapiens, UniProt P27487).
T3 construct: His(6)-37-766 hDP4 containing fractions were concentrated to 1 ml; made in house; host or cells: Pichia pastoris X-33 (vector pPICZα C, secreted)
Described as above. The following applies: substrate hydrolysis, 100 mM HEPES-buffer (pH 7.6), T = 30 °C. As to the method: (§1) The reactions were performed in 100 mM HEPES buffer, pH 7.6 at 30°C in a total assay volume of 270 μl by using 96-well plates. […] Fluorescence was detected with a […]luor Plus (TECAN) at an excitation wavelength of 380 nm and an emission wavelength of 465 nm.

Assay [4] deals with T4, DP4 variant E206A (Homo sapiens, UniProt P27487, E206A).
T4 construct: His(6)-37-766 hDP4 containing fractions were concentrated to 1 ml as described above; His6 (N); made in house; host or cells: Pichia pastoris X-33, vector pPICZα C (secreted)
Described as above. The following applies: substrate hydrolysis, 100 mM HEPES-buffer (pH 7.6), T = 30 °C. As to the method: as §1

The target in assay [5] is T5, DP4 variant N710A (Homo sapiens, UniProt P27487, N710A).
T5 construct: His(6)-37-766 hDP4 containing fractions were concentrated to 1 ml; made in house; host or cells: Pichia pastoris X-33 (vector pPICZα C, secreted)
The assay is described as above. As for the experimental part: as §1

For assay [6], the target named is T6, DP4 variant E205A (Homo sapiens, UniProt P27487, E205A).
T6 construct: His(6)-37-766 hDP4 containing fractions were concentrated to 1 ml as described above; His6 (N); made in house; host or cells: Pichia pastoris X-33, vector pPICZα C (secreted)
The assay is described as above. The following applies: substrate hydrolysis, 100 mM HEPES-buffer (pH 7.6), T = 30 °C. As for the experimental part:
as §1

Assay [7] has as its target T7, DP4 variant R125A (Homo sapiens, UniProt P27487, R125A).
T7 construct: His(6)-37-766 hDP4 containing fractions were concentrated to 1 ml; made in house; host or cells: Pichia pastoris X-33 (vector pPICZα C, secreted)
The description is as above. The following applies: substrate hydrolysis, 100 mM HEPES-buffer (pH 7.6), T = 30 °C. As to the method:
as §1

The target of assay [8] is T8, DP4 variant R125K (Homo sapiens, UniProt P27487, R125K).
T8 construct: His(6)-37-766 hDP4 containing fractions were concentrated to 1 ml; made in house; host or cells: Pichia pastoris X-33 (vector pPICZα C, secreted)
The assay is described as above. The following applies: substrate hydrolysis, 100 mM HEPES-buffer (pH 7.6), T = 30 °C. As to the method: as §1

Assay [9] concerns the target T3, wild type DP4. Put plainly: IC50 determination with substrate Gly-Pro-AMC. The following applies: 100 mM HEPES-buffer (pH 7.6), T = 30 °C, substrate Gly-Pro-AMC in the range of Km. As to the method: as §1
Assay [10] concerns the target T4, DP4 variant E206A. Put plainly: IC50 determination with substrate Gly-Pro-AMC. The following applies: bounds given in mM, 100 mM HEPES-buffer (pH 7.6), T = 30 °C, substrate Gly-Pro-AMC in the range of Km. As for the experimental part:
as §1

The target in assay [11] is T5, DP4 variant N710A. Put plainly: IC50 determination with substrate Gly-Pro-AMC. The following applies: 100 mM HEPES-buffer (pH 7.6), T = 30 °C, substrate Gly-Pro-AMC in the range of Km. As to the method: as §1
In assay [12] the target is T6, DP4 variant E205A. Put plainly: IC50 determination with substrate Gly-Pro-AMC. The following applies: 100 mM HEPES-buffer (pH 7.6), T = 30 °C, substrate Gly-Pro-AMC in the range of Km. As for the experimental part:
as §1

Assay [13] concerns the target T7, DP4 variant R125A. Put plainly: IC50 determination with substrate Gly-Pro-AMC. The following applies: 100 mM HEPES-buffer (pH 7.6), T = 30 °C, substrate Gly-Pro-AMC in the range of Km. As for the experimental part: as §1
Assay [14] concerns the target T1, DP4 variant N710Q. Put plainly: IC50 determination with substrate Gly-Pro-AMC. The following applies: bounds given in mM, 100 mM HEPES-buffer (pH 7.6), T = 30 °C, substrate Gly-Pro-AMC in the range of Km. As for the experimental part:
as §1

Assay [15] addresses T8, DP4 variant R125K. Put plainly: IC50 determination with substrate Gly-Pro-AMC. The following applies: 100 mM HEPES-buffer (pH 7.6), T = 30 °C, substrate Gly-Pro-AMC in the range of Km. As for the experimental part:
as §1

Assay [16] deals with T2, DP4 variant N710D. Put plainly: IC50 determination with substrate Gly-Pro-AMC. The following applies: 100 mM HEPES-buffer (pH 7.6), T = 30 °C, substrate Gly-Pro-AMC in the range of Km. As to the method: as §1
The mark [17] stands for this setting: N710A, substrate hydrolysis, 100 mM HEPES-buffer (pH 7.6), T = 30 °C.

Non-standard residues stand in square brackets, D forms with d. Residues, ends and D or L forms follow the SMILES beside them. *: point of attachment. AMC = Cc1cc(=O)oc2cc(N*)ccc12; Tle = CC(C)(C)[C@H](N)C(=O)O

T8 sequence (P27487 37-766 R125K): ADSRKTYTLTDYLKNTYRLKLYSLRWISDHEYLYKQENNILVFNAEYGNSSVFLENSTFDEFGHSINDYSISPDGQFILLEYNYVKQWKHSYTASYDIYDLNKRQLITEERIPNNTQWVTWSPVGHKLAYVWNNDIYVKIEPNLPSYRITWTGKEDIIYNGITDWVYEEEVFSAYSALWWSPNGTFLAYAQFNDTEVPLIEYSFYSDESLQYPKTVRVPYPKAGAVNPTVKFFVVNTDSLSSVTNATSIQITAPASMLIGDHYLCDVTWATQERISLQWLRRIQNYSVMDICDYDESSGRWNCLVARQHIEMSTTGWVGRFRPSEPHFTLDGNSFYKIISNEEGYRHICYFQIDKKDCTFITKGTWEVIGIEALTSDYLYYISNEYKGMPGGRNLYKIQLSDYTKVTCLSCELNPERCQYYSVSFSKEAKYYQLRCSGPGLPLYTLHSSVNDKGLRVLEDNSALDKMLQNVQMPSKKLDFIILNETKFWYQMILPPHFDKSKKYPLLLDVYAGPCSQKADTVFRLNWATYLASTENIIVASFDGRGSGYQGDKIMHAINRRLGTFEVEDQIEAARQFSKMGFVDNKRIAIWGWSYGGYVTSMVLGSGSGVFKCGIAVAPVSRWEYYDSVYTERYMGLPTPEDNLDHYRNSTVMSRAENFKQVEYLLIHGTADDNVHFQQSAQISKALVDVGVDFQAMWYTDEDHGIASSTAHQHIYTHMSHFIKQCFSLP
T5 sequence (P27487 37-766 N710A): as the sequence (P27487 37-766 R125K) above, with K89R, N674A counted along it
T3 sequence (P27487 37-766): as the sequence (P27487 37-766 R125K) above, with K89R counted along it
T6 sequence (P27487 37-766 E205A): as the sequence (P27487 37-766 R125K) above, with K89R, E169A counted along it
T4 sequence (P27487 37-766 E206A): as the sequence (P27487 37-766 R125K) above, with K89R, E170A counted along it
T1 sequence (P27487 37-766 N710Q): as the sequence (P27487 37-766 R125K) above, with K89R, N674Q counted along it
T7 sequence (P27487 37-766 R125A): as the sequence (P27487 37-766 R125K) above, with K89A counted along it
T2 sequence (P27487 37-766 N710D): as the sequence (P27487 37-766 R125K) above, with K89R, N674D counted along it

As to `Cc1cc(=O)oc2cc(NC(=O)[C@@H]3CCCN3C(=O)[C@H](C)N)ccc12` [Ala-Pro-AMC] (H-Ala-Pro-{AMC}), the “Change of Km-value in comparison to the wild type enzyme (decreased)” value in assay [1] (N710Q vs wild type) and in assay [5] (N710A vs wild type) was 100 fold each time. Moreover, the “Drop of kcat-value in comparison to the wild type enzyme” value in assay [1] (N710Q vs wild type) and in assay [5] (N710A vs wild type) was about 30 factor each time. Also, the kcat in assay [1] (N710Q, substrate hydrolysis, 100 mM HEPES-buffer (pH 7.6), T = 30 °C) is 0.23 ± 0.01 s⁻¹; in assay [2], 19 ± 0.6 s⁻¹; in assay [3], 32 ± 0.9 s⁻¹; in [4], 0.8 ± 0.05 s⁻¹; in assay [5] (setting [17]), 0.74 ± 0.03 s⁻¹; in assay [6] it was 17 ± 0.2 s⁻¹. For the same compound, the kcat in assay [7] was 48 ± 1.0 s⁻¹; in [8] it was 37 ± 0.5 s⁻¹. The Km in assay [3] was determined as 19 µM; in assay [4] (read-out: Km), 3400 µM; in [5] (setting [17]) it was 1700 µM; in [6], 240 µM; in assay [7], 37 µM; in assay [8] it was 38 µM.

For the compound `CC[C@H](C)[C@H](NC(=O)[C@@H]1CCCN1C(=O)[C@@H](N)C(C)(C)C)C(=O)O` [t-Bu-Gly-Pro-Ile, t-Butyl-Gly-Pro-Ile] (H-[Tle]-Pro-Ile-OH), the half-maximal inhibitory concentration (IC50) in assay [9] was 3.6 µM; in [10] it was over 10 mM; in assay [11] (bounds given in mM) it was over 10 mM; in [12], 1700 µM; in [13], 400 µM; in assay [14] it was over 10 mM. The figures for the IC50 in assay [15] and in assay [16] were 200 µM and 600 µM, respectively.

As for `CC[C@H](C)[C@H](NC(=O)[C@@H]1CCCN1C(=O)[C@@H](N)C(C)(C)C)C(N)=O` [t-Bu-Gly-Pro-Ile-NH2, t-Butyl-Gly-Pro-Ile-NH2] (H-[Tle]-Pro-Ile-NH2), the IC50 in assay [9] is 6.7 µM; in assay [10] it was over 10 mM; in assay [11], 0.14 mM; in assay [12], 1300 µM; in assay [13], 80 µM; in assay [14] it was over 10 mM. For the same compound, the IC50 in [15] came out at 53 µM; in assay [16], 400 µM.
